For the experiment, the system named is épidermes reconstruits d'Episkin. Kind of experiment: Maturation of the cornified envelope: count of mature envelopes (involucrin immunolabelling / Nile Red) after 7 days of treatment of reconstructed epidermis. Conditions: 168 h; C-glycoside 2,5% (p/v) alone; 30µl at J7, J9, J10, J13; read-out J14; read-out: augmentation du taux d'enveloppes cornées matures par rapport au témoin eau (Moy). The class given is cell-based. From the text: Les épidermes reconstruits d'Episkin ont été utilisés pour évaluer l'impact de molécules sur la maturation de l'enveloppe cornée.
Les Episkin J7 ont été cultivés avec le carraghénane et les associations carraghénane + C-BETA-D-XYLOPYRANOSIDE-2-HYDROXY-PROPANE (HYDROXYPROPYL TETRAHYDROPYRANTRIOL) pendant 7 jours. Après isolement du stratum, les enveloppes cornées sont extraites.
Trois types d'enveloppes cornées, matures, intermédiaires et immatures sont identifiés et comptées par un logiciel d'analyse d'image développé spécifiquement. […]
Les lames immunomarquées sont visionnées sous microscope (DM6000B Leica) suivant 2 modes d'observation : contraste de phase et fluorescence.
Le contraste de phase fournit une image en niveau de gris nous permettant de visualiser l'ensemble des cellules présentes dans le champ. Le mode fluorescence (jeu de filtercube) est utilisé pour visualiser les fluorochromes fixées à l'échantillon : • Le Nile Red est une sonde fluorescente permettant de localiser les zones hydrophobes plus particulièrement les lipides. […]

Regarding `CC(O)C[C@@H]1OC[C@@H](O)[C@H](O)[C@H]1O` (stereo partly drawn) [C-glycoside, C-β-D-xylopyranoside-2-hydroxy-propane], the activation at 25000 µg/mL was found to be 22%.
